SMILES strings stand for the structures. Like-named read-outs stand apart in the source and are kept apart here.

These results are taken from patent publication US20230107216A1, “PANTETHEINE DERIVATIVES AND USES THEREOF” (Comet Therapeutics, Inc., priority 2018, published 2023).

Assay [1] deals with Propionic Acidemia (PA) primary fibroblasts GM00371. Briefly: Mitochondrial respiration, XFe96 Extracellular Flux Analyzer (OCR/ECAR), PA fibroblasts GM00371. The assay is classed as cell-based. As to conditions: Homo sapiens, Fibroblast.
In assay [2] the test system is primary fibroblasts (healthy controls and PA, MMA, BCKDK, PDH, VLCAD, LS, PC, GA, VLCFA, KSS, FXN, HD). The experiment in a line: Measurement of ROS (H2DCFDA) in primary fibroblasts. The assay is classed as cell-based, human. As to conditions: Homo sapiens, procedure Example 812. The method in brief: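 Patient and healthy-control primary fibroblasts switched to supplemented DMEM 24 h before assay, then treated with compound (10 μM) plus H2DCFDA (22 μM) for 2 h (PA, MMA lines) or 24 h (other lines). Kinetic fluorescence at 492/527 nm over 60 min; only live cells analysed.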

For assay [3], the system named is monocyte-derived M1 macrophages. The experiment in a line: M1 differentiation assay (macrophage TNFα, IL6, IL10 ELISA, FACS). In kind it is cell-based, human. A digest of the protocol:
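CD14+ human blood monocytes (100,000) differentiated 6 days with 10 ng/ml GM-CSF plus compound at 10 or 50 μM, refreshed days 2 and 4. Matured 24 h with GM-CSF, IFNγ, LPS plus compound. Supernatant TNFα, IL6, IL10 by ELISA; FACS M1 phenotype CD86+CD68+CD163−.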

Where [4] appears, read: assay condition C (10 mM glucose, 10% FBS), read-out: Increase in Maximal Respiratory Capacity AUC.
Setting [5] is: assay condition D (1 mM glucose, 10% FBS), read-out: Increase in Spare Capacity AUC.
Setting [6] is: assay condition D (1 mM glucose, 10% FBS), read-out: Increase in Maximal Respiratory Capacity AUC.
Setting [7] is: Fibroblast, BCKD GM00612, Assay Condition A, read-out: Decreased ROS by at least 10%.
Where [8] appears, read: Fibroblast, BCKD GM00649, Assay Condition C, read-out: Decreased ROS by at least 30%.
Setting [9] is: FXN GM04078, Assay Condition C, read-out: Decreased ROS by at least 10%.
[10] abbreviates: FXN GM04078, Assay Condition C, read-out: Decreased ROS by at least 30%.
Setting [11] is: Fibroblast, PDH GM01503, Assay Condition C, read-out: Decreased ROS by at least 10%.
The mark [12] stands for this setting: assay condition A (10 mM glucose, 2 mM L-glutamine, 1 mM pyruvate, 10% FBS), read-out: Increase in Maximal Respiratory Capacity AUC.
Where [13] appears, read: Fibroblast, VLCAD GM17475, Assay Condition C, read-out: Decreased ROS by at least 30%.
Setting [14] is: Homo sapiens, Macrophage, 10 uM, read-out: % decrease in Macrophage IL-6 Secretion.
The mark [15] stands for this setting: Homo sapiens, Macrophage, 10 uM, read-out: % decrease in Macrophage TNFα Secretion.
[16] abbreviates: Fibroblast, VLCFA GM13262, Assay Condition C, read-out: Decreased ROS by at least 30%.
The mark [17] stands for this setting: Homo sapiens, Macrophage, 50 uM, read-out: % Increase in IL-10 Secretion.
The mark [18] stands for this setting: assay condition A (10 mM glucose, 2 mM L-glutamine, 1 mM pyruvate, 10% FBS), read-out: Increase in Spare Capacity AUC.

For the compound `CC(C)(CO)[C@@H](O)C(=O)NCCC(=O)NCCSC(=O)CCC(=O)O` [Compound 1, (R)-4-((2-(3-(2,4-dihydroxy-3,3-dimethylbutanamido)propanamido)ethyl)thio)-4-oxobutanoic acid], in assay [1] (setting [4]), the activation at 50 µM was at least 10%. Besides, the activation at 10 µM in assay [1] (setting [5]) is at least 10%.

As to `CC(C)(CO)[C@@H](O)C(=O)NCCC(=O)NCCSC(=O)CC(=O)CCC(=O)O` [Compound 2, 6-[(2-[3-[(2R)-2,4-dihydroxy-3,3-dimethylbutanamido]propanamido]ethyl)sulfanyl]-4,6-dioxohexanoic acid], in assay [1] (setting [6]), the activation at 50 µM was at least 10%. Also, the inhibition at 10 µM in assay [2] (setting [7]) was at least 10%; in assay [2] (setting [8]) it was at least 30%; in assay [2] (setting [9]) it was at least 10%; in assay [2] (setting [10]) it was at least 30%.

For the compound `CC(C)(CO)[C@@H](O)C(=O)NCCC(=O)NCCSC(CC(=O)OCC[N+](C)(C)C)C(=O)O` (stereo partly drawn) [Compound 51, [2-([3-carboxy-3-[(2-[3-[(2R)-2,4-dihydroxy-3,3-dimethylbutanamido]propanamido]ethyl)sulfanyl]propanoyl]oxy)ethyl]trimethylazanium], in assay [1] (setting [4]), the activation at 50 µM is at least 10%.

Consider `CC(=O)OCC(C)(C)[C@@H](O)C(=O)NCCC(=O)NCCSC(=O)CC(=O)CCC(=O)O` [Compound 140, 6-[(2-[3-[(2R)-4-(acetyloxy)-2-hydroxy-3,3-dimethylbutanamido]propanamido]ethyl)sulfanyl]-4,6-dioxohexanoic acid], for which the activation at 50 µM in assay [1] (setting [4]) was at least 10%. The inhibition at 10 µM in assay [2] (Fibroblast, Leigh GM13411, Assay Condition C, read-out: Decreased ROS by at least 30%) was at least 30%; in assay [2] (setting [11]), at least 10%.

Turning to `CC(C)(CO)[C@@H](O)C(=O)NCCC(=O)NCCSC(=O)CCCN` [Compound 370, (2R)—N-[2-([2-[(4-aminobutanoyl)sulfanyl]ethyl]carbamoyl)ethyl]-2,4-dihydroxy-3,3-dimethylbutanamide], the activation at 10 µM in assay [1] (setting [12]) and in assay [1] (setting [6]) was at least 10% each time. The activation at 50 µM in assay [1] (setting [4]) is at least 10%.

As for `CCCCCCC(=O)SCCNC(=O)CCNC(=O)[C@H](O)C(C)(C)CO` [Compound 372, (2R)—N-(2-[[2-(heptanoylsulfanyl)ethyl]carbamoyl]ethyl)-2,4-dihydroxy-3,3-dimethylbutanamide], the activation at 50 µM in assay [1] (setting [4]) is at least 10%. The inhibition at 10 µM in assay [2] (setting [9]) is at least 10%; in assay [2] (setting [10]), at least 30%.

On to `CCC(=O)CC(=O)SCCNC(=O)CCNC(=O)[C@H](O)C(C)(C)CO` [Compound 382, (2R)-2,4-dihydroxy-3,3-dimethyl-N-[2-([2-[(3-oxopentanoyl)sulfanyl]ethyl]carbamoyl)ethyl]butanamide], for which, in assay [1] (setting [6]), the activation at 10 µM was at least 10%. Further, the inhibition at 10 µM is at least 10% in assay [2] (setting [11]), at least 30% in assay [2] (setting [13]), at least 10% in assay [2] (setting [9]) and at least 30% in assay [2] (setting [10]).

Turning to `COC(=O)CC(C(C)=O)C(=O)SCCNC(=O)CCNC(=O)[C@H](O)C(C)(C)CO` (stereo partly drawn) [Compound 410], in assay [1] (setting [6]), the activation at 50 µM was at least 10%. Further, the inhibition at 10 µM in assay [2] (setting [8]) was at least 30%; in assay [2] (Fibroblast, MMA Tsi 5224, Assay Condition A, read-out: Decreased ROS by at least 10%), at least 10%; in assay [2] (setting [9]) it was at least 10%; in assay [2] (setting [10]), at least 30%.

For `CC(=O)SCCNC(=O)CCNC(=O)[C@H](O)C(C)(C)COC(=O)[C@@H](N)Cc1ccc(O)c(O)c1` [Compound 498, (3R)-3-[(2-[[2-(acetylsulfanyl)ethyl]carbamoyl]ethyl)carbamoyl]-3-hydroxy-2,2-dimethylpropyl (2S)-2-amino-3-(3,4-dihydroxyphenyl)propanoate], the activation at 10 µM in assay [1] (setting [6]) was at least 10%.

For `CC(=O)SCCNC(=O)CCNC(=O)[C@H](O)C(C)(C)COC(=O)[C@H](C)N` [Compound 502, (3R)-3-[(2-[[2-(acetylsulfanyl)ethyl]carbamoyl]ethyl)carbamoyl]-3-hydroxy-2,2-dimethylpropyl (2S)-2-aminopropanoate], in assay [1] (setting [12]), the activation at 10 µM was at least 30% and the activation at 50 µM is at least 10%.

Regarding `CC(C(=O)SCCNC(=O)CCNC(=O)[C@H](O)C(C)(C)CO)[C@@H](C)O` (stereo partly drawn) [Compound 1244, (2R)-2,4-dihydroxy-N-{2-[(2-{[(3R)-3-hydroxy-2-methylbutanoyl]sulfanyl}ethyl)carbamoyl]ethyl}-3,3-dimethylbutanamide], the inhibition at 10 µM in assay [3] (setting [14]) is at least 30%; in assay [3] (setting [15]), at least 30%; in assay [2] (setting [7]) it was at least 10%; in assay [2] (setting [16]) it was at least 30%.

For `CC[C@@H](O)CC(=O)SCCNC(=O)CCNC(=O)[C@H](O)C(C)(C)CO` [Compound 1245, (2R)-2,4-dihydroxy-N-{2-[(2-{[(3R)-3-hydroxypentanoyl]sulfanyl}ethyl)carbamoyl]ethyl}-3,3-dimethylbutanamide], the activation at 10 µM in assay [3] (Homo sapiens, Macrophage, 10 uM, read-out: % Increase in IL-10 Secretion) was at least 30%. Besides, the inhibition at 10 µM in assay [3] (setting [14]) was at least 30%; in assay [3] (setting [15]), at least 30%; in assay [2] (Fibroblast, VLCAD GM17475, Assay Condition C, read-out: Decreased ROS by at least 10%), at least 10%; in assay [2] (setting [13]) it was at least 30%.

Turning to `CC1(CC(=O)SCCNC(=O)CCNC(=O)[C@H](O)C(C)(C)CO)OCCO1` [Compound 1252, (R)—S-(2-(3-(2,4-dihydroxy-3,3-dimethylbutanamido)propanamido)ethyl)-2-(2-methyl-1,3-dioxolan-2-yl)ethanethioate], the “% decrease in Live Macrophage Cells” value in assay [3] (50 uM) is recorded as at least 20%. Besides, the inhibition at 10 µM in assay [3] (setting [14]) was at least 30%; in assay [3] (setting [15]) it was at least 30%; in assay [2] (setting [11]), at least 10%; in assay [2] (Fibroblast, PDH GM01503, Assay Condition C, read-out: Decreased ROS by at least 30%), at least 30%. Moreover, the activation at 50 µM in assay [3] (setting [17]) was at least 30%.

Regarding `COC(=O)CCC(=O)SCCNC(=O)CCNC(=O)[C@H](OC(=O)CN)C(C)(C)CO` [Compound 1294, methyl 4-[(2-[3-[(2R)-2-[(2-aminoacetyl)oxy]-4-hydroxy-3,3-dimethylbutanamido]propanamido]ethyl)sulfanyl]-4-oxobutanoate], the activation at 10 µM in assay [1] (setting [5]) is at least 30%.

For the compound `COC(=O)CCC(=O)SCCNC(=O)CCNC(=O)[C@H](OC(=O)CNC(C)=O)C(C)(C)CO` [Compound 1298, methyl 4-[(2-[3-[(2R)-2-[(2-acetamidoacetyl)oxy]-4-hydroxy-3,3-dimethylbutanamido]propanamido]ethyl)sulfanyl]-4-oxobutanoate], the activation at 10 µM in assay [1] (setting [18]) and in assay [1] (setting [5]) was at least 30% in each case. The figures for the activation at 50 µM in assay [1] (setting [18]) and in assay [1] (setting [6]) were at least 50% and at least 10%, respectively.

Turning to `CC(C)(COC(=O)CCC(=O)O)[C@@H](O)C(=O)NCCC(=O)NCCS` [Compound 1310, (R)-4-(3-hydroxy-4-((3-((2-mercaptoethyl)amino)-3-oxopropyl)amino)-2,2-dimethyl-4-oxobutoxy)-4-oxobutanoic acid], the inhibition at 10 µM is at least 30% in assay [3] (setting [14]), at least 30% in assay [3] (setting [15]), at least 10% in assay [2] (setting [7]) and at least 30% in assay [2] (setting [16]). In addition, the activation at 50 µM in assay [3] (setting [17]) was at least 30%.

Consider `CC(C)(CO)[C@@H](OC(=O)CCC(=O)O)C(=O)NCCC(=O)NCCS` [Compound 1311, (R)-4-((4-hydroxy-1-((3-((2-mercaptoethyl)amino)-3-oxopropyl)amino)-3,3-dimethyl-1-oxobutan-2-yl)oxy)-4-oxobutanoic acid], for which the “% decrease in IL-10 Secretion” value in assay [3] (50 uM) was at least 30%. Moreover, the inhibition at 10 µM in assay [3] (setting [14]) is at least 30%; in assay [3] (setting [15]), at least 30%; in assay [2] (setting [7]), at least 10%; in assay [2] (setting [16]) it was at least 30%; in assay [2] (setting [9]), at least 10%; in assay [2] (setting [10]) it was at least 30%. Also, the activation at 50 µM in assay [3] (setting [17]) is at least 30%.
